The source of these data is US10793574B2, “TYK2 inhibitors and uses thereof” (Nimbus Lakshmi, Inc., priority 2016, dated 2020).

The structures appear in SMILES notation.

For one assay, the target named is TYK2 JH1 kinase (Homo sapiens (Human), UniProt P29597). The assay is described as follows: Tyk2 radioactive kinase assay. The settings on record: active kinase assay, ATP 10 μM. In kind it is biochemical. How it is done:
(§1) Peptide substrate, [KKSRGDYMTMQIG], (20 μM) is prepared in reaction buffer (20 mM Hepes pH 7.5, 10 mM MgCl2, 1 mM EGTA, 0.02% Brij35, 0.02 mg/mL BSA, 0.1 mM […], 2 mM DTT, 1% DMSO. TYK2 (Invitrogen) kinase is added, followed by compounds in DMSO. 33PATP is added to initiate the reaction in ATP at 10 μM. Kinase reaction is incubated for 120 min at room temp and reactions are spotted onto P81 ion exchange paper (Whatman #3698-915), and then washed extensively in 0.75% phosphoric acid, prior to reading the radioactivity counts. For JAK2 (Invitrogen) kinase assay the peptide substrate poly[Glu:Tyr](4:1), 0.2 mg/ml is used, in the reaction carried out the same as for TYK2.

The target in another assay is JAK2 JH1 kinase (Homo sapiens (Human), UniProt O60674). The assay is described as follows: JAK2 radioactive kinase assay. Type of assay: biochemical. The settings on record: active kinase assay, ATP 10 μM. On the procedure: as §1
Sequence of JAK2 JH1 kinase (O60674 808-1132): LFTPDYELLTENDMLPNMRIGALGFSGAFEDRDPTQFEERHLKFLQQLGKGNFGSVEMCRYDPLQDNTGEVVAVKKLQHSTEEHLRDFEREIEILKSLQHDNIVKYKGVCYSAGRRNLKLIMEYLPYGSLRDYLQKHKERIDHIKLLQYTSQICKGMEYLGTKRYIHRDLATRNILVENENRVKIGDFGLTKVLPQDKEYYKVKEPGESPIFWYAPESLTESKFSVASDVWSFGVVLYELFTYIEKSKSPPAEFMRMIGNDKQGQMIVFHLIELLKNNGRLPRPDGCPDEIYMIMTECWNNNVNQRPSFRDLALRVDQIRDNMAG

Sequence of TYK2 JH1 kinase (P29597 833-1187): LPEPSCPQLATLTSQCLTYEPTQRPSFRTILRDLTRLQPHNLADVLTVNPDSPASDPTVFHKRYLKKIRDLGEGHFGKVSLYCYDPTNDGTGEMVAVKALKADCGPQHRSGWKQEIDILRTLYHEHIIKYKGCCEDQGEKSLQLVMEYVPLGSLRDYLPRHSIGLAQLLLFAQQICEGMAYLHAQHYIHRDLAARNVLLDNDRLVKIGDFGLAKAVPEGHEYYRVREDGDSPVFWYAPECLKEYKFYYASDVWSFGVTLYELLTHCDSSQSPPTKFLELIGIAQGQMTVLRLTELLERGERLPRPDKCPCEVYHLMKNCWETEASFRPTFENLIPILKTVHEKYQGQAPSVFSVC

For the compound `COc1c(Nc2cc(NC(=O)C3CC3)ncc2-c2ncc(F)s2)cccc1-c1nnn(C)n1` [VIII-2, N-(5-(5-fluorothiazol-2-yl)-4-((2-methoxy-3-(2-methyl-2H-tetrazol-5-yl)phenyl)amino)pyridin-2-yl)cyclopropanecarboxamide], the “inhibitory activity against TYK2 JH1 kinase function” value on TYK2 JH1 kinase is reported as “no detectable inhibitory activity”. The “inhibitory activity against JAK2 JH1 kinase function” value on JAK2 JH1 kinase was “no detectable inhibitory activity”.
Consider `COc1c(Nc2cc(NC(=O)C3CC3)ncc2-c2ncc(Cl)s2)cccc1-c1nnn(C)n1` [VIII-1, N-(5-(5-chlorothiazol-2-yl)-4-((2-methoxy-3-(2-methyl-2H-tetrazol-5-yl)phenyl)amino)pyridin-2-yl)cyclopropanecarboxamide], for which the “inhibitory activity against TYK2 JH1 kinase function” value at TYK2 JH1 kinase is on record as “no detectable inhibitory activity”. Further, the “inhibitory activity against JAK2 JH1 kinase function” value at JAK2 JH1 kinase is reported as “no detectable inhibitory activity”.
In the case of `COc1c(Nc2cc(NC(=O)C3CC3)ncc2-c2nnc(C(F)(F)F)o2)cccc1-c1ncn(C)n1` [VIII-3, N-(4-((2-methoxy-3-(1-methyl-1H-1,2,4-triazol-3-yl)phenyl)amino)-5-(5-(trifluoromethyl)-1,3,4-oxadiazol-2-yl)pyridin-2-yl)cyclopropanecarboxamide], the “inhibitory activity against TYK2 JH1 kinase function” value on TYK2 JH1 kinase is given as “no detectable inhibitory activity”. Moreover, the “inhibitory activity against JAK2 JH1 kinase function” value at JAK2 JH1 kinase was “no detectable inhibitory activity”.
On to `COCc1ccnc(Nc2cc(Nc3cccc(-c4nnn(C)n4)c3OC)c3c(=O)n(C)[nH]c3n2)c1` [Compound I-2, 4-((2-methoxy-3-(2-methyl-2H-tetrazol-5-yl)phenyl)amino)-6-((4-(methoxymethyl)pyridin-2-yl)amino)-2-methyl-1,2-dihydro-3H-pyrazolo[3,4-b]pyridin-3-one], for which the “inhibitory activity against TYK2 JH1 kinase function” value at TYK2 JH1 kinase is recorded as “no detectable inhibitory activity”.
On the same count and under the same terms, the result for `COc1c(Nc2cc(NC(=O)C3CC3)nc3[nH]n(C)c(=O)c23)cccc1-c1nnn(C)n1` [Compound I-1, N-(4-((2-methoxy-3-(2-methyl-2H-tetrazol-5-yl)phenyl)amino)-2-methyl-3-oxo-2,3-dihydro-1H-pyrazolo[3,4-b]pyridin-6-yl)cyclopropanecarboxamide] reads “no detectable inhibitory activity”.
Turning to `COC(=O)c1nnc(-c2cnc(NC(=O)C3CC3)cc2Nc2cccc(-c3ncn(C)n3)c2OC)o1` [VIII-4, methyl 5-(6-(cyclopropanecarboxamido)-4-((2-methoxy-3-(1-methyl-1H-1,2,4-triazol-3-yl)phenyl)amino)pyridin-3-yl)-1,3,4-oxadiazole-2-carboxylate], on TYK2 JH1 kinase, the “inhibitory activity against TYK2 JH1 kinase function” value is “no detectable inhibitory activity”. Moreover, the “inhibitory activity against JAK2 JH1 kinase function” value at JAK2 JH1 kinase was “no detectable inhibitory activity”.
